Experimental data taken from patent publication US20090304692A1, “TRIAZINE COMPOUNDS AS PI3 KINASE AND MTOR INHIBITORS” (Wyeth, priority 2008, published 2009).
Where “and” joins values, the source holds several entries; their conditions need not be identical. Identical values can stand only once. Counter-ions that a name gives are not always drawn. Like-named read-outs stand apart in the source and are kept apart here.

Assays:
PI3K-γ = PI3K-γ (Homo sapiens, UniProt P48736); assay: PI3K-gamma fluorescence polarization assay; conditions: read-out: IC50 PI3Kγ
PI3K-γ, sequence (P48736 whole entry, species assumed): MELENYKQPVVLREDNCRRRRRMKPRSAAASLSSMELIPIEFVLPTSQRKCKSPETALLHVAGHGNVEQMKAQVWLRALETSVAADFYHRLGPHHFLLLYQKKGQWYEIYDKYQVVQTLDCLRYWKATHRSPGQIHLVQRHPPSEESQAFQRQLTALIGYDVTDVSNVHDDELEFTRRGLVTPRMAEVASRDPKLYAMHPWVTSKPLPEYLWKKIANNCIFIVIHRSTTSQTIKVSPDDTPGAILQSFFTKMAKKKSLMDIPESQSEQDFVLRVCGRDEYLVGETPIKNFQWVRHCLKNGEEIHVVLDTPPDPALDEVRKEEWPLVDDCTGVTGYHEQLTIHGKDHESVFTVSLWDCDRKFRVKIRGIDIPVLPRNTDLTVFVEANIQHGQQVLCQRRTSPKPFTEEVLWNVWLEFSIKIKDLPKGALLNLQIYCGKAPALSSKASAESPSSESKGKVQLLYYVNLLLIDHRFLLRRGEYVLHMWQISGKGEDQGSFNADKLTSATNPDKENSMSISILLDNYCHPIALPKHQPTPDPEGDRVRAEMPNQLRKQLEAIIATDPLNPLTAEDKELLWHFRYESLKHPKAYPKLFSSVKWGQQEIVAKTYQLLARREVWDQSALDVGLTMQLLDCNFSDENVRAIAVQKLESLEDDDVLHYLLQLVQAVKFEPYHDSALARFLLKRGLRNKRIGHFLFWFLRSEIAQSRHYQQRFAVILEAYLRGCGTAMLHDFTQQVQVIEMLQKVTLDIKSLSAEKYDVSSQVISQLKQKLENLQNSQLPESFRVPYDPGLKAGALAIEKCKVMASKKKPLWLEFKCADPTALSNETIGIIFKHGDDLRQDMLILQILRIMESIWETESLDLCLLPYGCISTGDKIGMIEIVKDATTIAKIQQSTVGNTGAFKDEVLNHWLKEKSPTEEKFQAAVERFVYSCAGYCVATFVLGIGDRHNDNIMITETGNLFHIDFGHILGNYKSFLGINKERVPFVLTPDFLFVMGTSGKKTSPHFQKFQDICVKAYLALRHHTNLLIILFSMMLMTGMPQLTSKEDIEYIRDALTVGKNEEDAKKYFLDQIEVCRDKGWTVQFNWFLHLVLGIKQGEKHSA

PI3K-α = PI3K-α (Homo sapiens, UniProt P42336); assay: PI3K-alpha fluorescence polarization assay; conditions: read-out: IC50 PI3Kα
PI3K-α, sequence (P42336 whole entry, species assumed): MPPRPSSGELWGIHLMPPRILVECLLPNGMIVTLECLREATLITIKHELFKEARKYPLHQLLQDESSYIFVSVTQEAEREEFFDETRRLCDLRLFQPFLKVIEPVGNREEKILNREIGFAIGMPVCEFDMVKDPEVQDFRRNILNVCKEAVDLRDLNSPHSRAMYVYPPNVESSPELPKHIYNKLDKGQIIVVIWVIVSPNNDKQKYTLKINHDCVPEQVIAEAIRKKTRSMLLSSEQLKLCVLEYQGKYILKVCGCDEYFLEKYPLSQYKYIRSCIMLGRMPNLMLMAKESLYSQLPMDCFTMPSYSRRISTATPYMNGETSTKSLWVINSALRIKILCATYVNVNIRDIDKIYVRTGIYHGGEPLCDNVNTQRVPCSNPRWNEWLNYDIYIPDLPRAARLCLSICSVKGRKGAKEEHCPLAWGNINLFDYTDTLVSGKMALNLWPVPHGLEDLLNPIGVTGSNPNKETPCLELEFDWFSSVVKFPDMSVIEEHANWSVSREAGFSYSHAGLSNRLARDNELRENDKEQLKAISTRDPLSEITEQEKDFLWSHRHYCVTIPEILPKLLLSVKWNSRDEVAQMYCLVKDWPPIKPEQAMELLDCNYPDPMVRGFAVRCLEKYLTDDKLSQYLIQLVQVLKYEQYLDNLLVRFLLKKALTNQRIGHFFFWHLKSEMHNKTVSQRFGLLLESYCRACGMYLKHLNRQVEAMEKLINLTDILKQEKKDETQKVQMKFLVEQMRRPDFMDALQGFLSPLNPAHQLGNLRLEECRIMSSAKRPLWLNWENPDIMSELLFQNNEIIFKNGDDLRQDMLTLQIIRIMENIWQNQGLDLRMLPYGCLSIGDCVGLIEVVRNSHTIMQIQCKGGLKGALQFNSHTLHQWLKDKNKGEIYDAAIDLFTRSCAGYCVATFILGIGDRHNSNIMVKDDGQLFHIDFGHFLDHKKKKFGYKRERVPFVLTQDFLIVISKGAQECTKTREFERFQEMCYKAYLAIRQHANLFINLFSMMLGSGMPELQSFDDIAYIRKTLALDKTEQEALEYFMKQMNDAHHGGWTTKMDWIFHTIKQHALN
PI3K-α, sequence (P27986 whole entry partner, species assumed): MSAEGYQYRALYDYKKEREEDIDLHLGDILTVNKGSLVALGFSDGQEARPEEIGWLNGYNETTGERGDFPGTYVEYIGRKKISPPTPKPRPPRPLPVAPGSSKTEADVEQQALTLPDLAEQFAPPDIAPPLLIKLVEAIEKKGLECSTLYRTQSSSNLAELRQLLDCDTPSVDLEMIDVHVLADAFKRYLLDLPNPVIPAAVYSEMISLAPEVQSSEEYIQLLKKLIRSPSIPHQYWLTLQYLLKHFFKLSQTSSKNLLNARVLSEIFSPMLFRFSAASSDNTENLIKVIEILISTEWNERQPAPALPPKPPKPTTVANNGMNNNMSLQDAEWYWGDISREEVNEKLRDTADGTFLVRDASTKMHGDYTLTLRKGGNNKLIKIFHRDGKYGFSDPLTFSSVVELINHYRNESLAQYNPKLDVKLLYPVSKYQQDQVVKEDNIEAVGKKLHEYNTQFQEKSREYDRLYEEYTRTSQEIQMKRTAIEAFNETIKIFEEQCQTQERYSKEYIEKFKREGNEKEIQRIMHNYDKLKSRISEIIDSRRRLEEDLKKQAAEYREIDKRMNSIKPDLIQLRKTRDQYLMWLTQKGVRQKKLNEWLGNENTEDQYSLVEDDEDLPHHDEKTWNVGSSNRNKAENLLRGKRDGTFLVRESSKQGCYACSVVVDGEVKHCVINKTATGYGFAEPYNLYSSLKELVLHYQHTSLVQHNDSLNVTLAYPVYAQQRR

[1] = system: human breast MDA-MB-361 tumor cell line; assay: In vitro cell culture growth assay (MTS), MDA-MB-361; type: cell-based; conditions: Homo sapiens, MTS cell growth assay, three days after drug treatment, read-out: IC50 MDA-MB-361
Human mTOR (FLAG-TOR) = Human mTOR (FLAG-TOR) (Homo sapiens, UniProt P42345); assay: mTOR kinase assay (DELFIA format, purified enzyme); type: biochemical; conditions: read-out: IC50 mTOR
Human mTOR (FLAG-TOR), sequence (P42345 1360-2549 limits assumed): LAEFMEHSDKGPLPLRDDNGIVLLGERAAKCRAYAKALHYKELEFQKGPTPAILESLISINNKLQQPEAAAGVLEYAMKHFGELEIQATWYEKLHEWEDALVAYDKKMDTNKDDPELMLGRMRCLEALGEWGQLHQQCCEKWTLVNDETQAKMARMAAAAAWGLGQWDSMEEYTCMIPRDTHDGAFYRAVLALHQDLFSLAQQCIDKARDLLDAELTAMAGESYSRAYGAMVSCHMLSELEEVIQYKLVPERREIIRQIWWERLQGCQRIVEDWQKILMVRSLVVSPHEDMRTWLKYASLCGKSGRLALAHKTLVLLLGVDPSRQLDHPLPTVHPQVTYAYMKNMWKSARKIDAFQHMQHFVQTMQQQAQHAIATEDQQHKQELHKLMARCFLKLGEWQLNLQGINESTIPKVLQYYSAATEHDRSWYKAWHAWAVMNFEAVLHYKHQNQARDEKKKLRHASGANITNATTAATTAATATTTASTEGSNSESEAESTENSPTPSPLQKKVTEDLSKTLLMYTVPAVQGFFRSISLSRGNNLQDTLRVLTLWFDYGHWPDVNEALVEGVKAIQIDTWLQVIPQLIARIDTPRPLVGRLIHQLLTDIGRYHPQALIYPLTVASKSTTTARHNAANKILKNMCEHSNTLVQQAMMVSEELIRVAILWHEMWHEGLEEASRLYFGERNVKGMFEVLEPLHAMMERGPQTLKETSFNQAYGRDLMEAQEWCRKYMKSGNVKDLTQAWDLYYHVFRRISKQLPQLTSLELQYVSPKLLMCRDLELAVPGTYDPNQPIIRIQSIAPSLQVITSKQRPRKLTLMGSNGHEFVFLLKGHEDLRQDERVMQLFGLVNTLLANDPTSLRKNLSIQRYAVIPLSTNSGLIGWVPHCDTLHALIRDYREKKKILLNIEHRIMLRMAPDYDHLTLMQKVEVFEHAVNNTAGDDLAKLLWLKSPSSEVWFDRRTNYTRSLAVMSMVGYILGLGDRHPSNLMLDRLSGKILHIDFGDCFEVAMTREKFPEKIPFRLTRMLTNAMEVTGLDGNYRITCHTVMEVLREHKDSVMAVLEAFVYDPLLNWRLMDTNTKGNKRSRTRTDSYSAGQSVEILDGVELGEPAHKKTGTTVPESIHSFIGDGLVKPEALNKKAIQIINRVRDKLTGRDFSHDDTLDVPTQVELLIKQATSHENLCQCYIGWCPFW

[2] = system: human prostate PC3-mm2 tumor cell line; assay: In vitro cell culture growth assay (MTS), PC3-mm2; type: cell-based; conditions: Homo sapiens, PC3MM2, 72 h, MTS cell growth assay, three days after drug treatment, read-out: IC50 PC3-mm2
[3] = MDA-MB-361, 72 h, MDA-MB-361 cells

Structure (SMILES)	IC50 (PI3K-γ) [nM]	IC50 (PI3K-γ; listed as 718) [nM]	IC50 (PI3K-α) [nM]	IC50 (PI3K-α; listed as 718) [nM]	IC50 ([1]; MDA-MB-361, 72 h) [nM]	IC50 (Human mTOR (FLAG-TOR))	IC50 ([2]; PC3-mm2 cells) [nM]	IC50 [2] [nM]	IC50 ([1]; 72 h, MDA-MB-361 cells) [nM]	IC50 [1, 3] [nM]
O=C(Nc1ccncc1)Nc1ccc(-c2nc(CCNc3ccncc3)nc(N3CCOCC3)n2)cc1 [Example 228, 1-(4-{4-morpholin-4-yl-6-[2-(pyridin-4-ylamino)ethyl]-1,3,5-triazin-2-yl}phenyl)-3-pyridin-4-ylurea]	280	210	46	40.5	3920	51 nM and 55 nM	7170	7170	–	–
OCc1cccc(-c2nc(N3CCOCC3)nc(N3C4CCC3COC4)n2)c1 [Example 682, {3-[4-morpholin-4-yl-6-(3-oxa-8-azabicyclo[3.2.1]oct-8-yl)-1,3,5-triazin-2-yl]phenyl}methanol]	1280	–	84.3	–	–	88.5 nM	766	–	1040	–
COCCNC(=O)c1ccc(NC(=O)Nc2ccc(-c3nc(N4CCCCC4)nc(N4CCOCC4)n3)cc2)cc1 [Example 611, N-(2-methoxyethyl)-4-({[4-(4-morpholin-4-yl-6-piperidin-1-yl-1,3,5-triazin-2-yl)phenyl]carbamoyl}amino)benzamide]	152	–	18.5	–	–	13 nM	581	–	194	–
O=C(Nc1ccc(C(=O)N2CCC(N3CCCC3)CC2)cc1)Nc1ccc(-c2nc(N3CCOCC3)nc(N3C4CCC3COC4)n2)cc1 [Example 761, 1-{4-[4-morpholin-4-yl-6-(3-oxa-8-azabicyclo[3.2.1]oct-8-yl)-1,3,5-triazin-2-yl]phenyl}-3-{4-[(4-pyrrolidin-1-ylpiperidin-1-yl)carbonyl]phenyl}urea]	19	–	2	–	–	0.12 nM	4	–	–	< 3
CN(C)CCN(C)C(=O)c1ccc(NC(=O)Nc2ccc(-c3nc(N4CCOCC4)nc(N4CCN(C(=O)N(C)C)CC4)n3)cc2)cc1 [Example 648, 4-[4-(4-{[(4-{[2-(dimethylamino)ethyl](methyl)carbamoyl}phenyl)carbamoyl]amino}phenyl)-6-morpholin-4-yl-1,3,5-triazin-2-yl]-N,N-dimethylpiperazine-1-carboxamide]	27	–	2	–	–	3 nM	34	–	12	–
C[C@H]1COCCN1c1nc(-c2ccc(NC(=O)Nc3ccc(C(=O)N(C)CCN(C)C)cc3)cc2)nc(N2CCOC[C@@H]2C)n1 [Example 564, 4-{[(4-{4,6-bis[(3S)-3-methylmorpholin-4-yl]-1,3,5-triazin-2-yl}phenyl)carbamoyl]amino}-N-[2-(dimethylamino)ethyl]-N-methylbenzamide]	16.5	–	0.6	–	–	1 nM	7	–	1	–
CN(C)C1CCN(C(=O)Nc2ccc(NC(=O)Nc3ccc(-c4nc(N5CCOCC5)nc(N5CCOCC5)n4)cc3)cc2)CC1 [Example 499, 4-(dimethylamino)-N-[4-({[4-(4,6-dimorpholin-4-yl-1,3,5-triazin-2-yl)phenyl]carbamoyl}amino)phenyl]piperidine-1-carboxamide]	4.5	–	< 1.9	–	–	2.2 nM	31	–	–	21
CC(C)(C)OC(=O)N1CC(Nc2nc(-c3ccc(NC(=O)Nc4ccncc4)cc3)nc(N3CCOCC3)n2)C1 [Example 21, tert-butyl 3-[(4-morpholin-4-yl-6-{4-[(pyridine-4-ylcarbamoyl)amino]phenyl}-1,3,5-triazin-2-yl)amino]azetidine-1-carboxylate]	92	–	22	–	129	1.75 nM	–	246	–	–
CCc1nc(-c2ccc(NC(=O)Nc3ccc(C(=O)N4CCN(c5ccccn5)CC4)cc3)cc2)nc(N2CCOCC2)n1 [Example 534, 1-[4-(4-ethyl-6-morpholin-4-yl-1,3,5-triazin-2-yl)phenyl]-3-{4-[(4-pyridin-2-ylpiperazin-1-yl)carbonyl]phenyl}urea]	11.1	–	2.1	–	–	53.4 nM	73.7	–	32.3	–
CN1CCN(C(=O)c2ccc(NC(=O)Nc3ccc(-c4nc(N5CCOCC5)nc(N5C6CCCC5COC6)n4)cc3)cc2)CC1 [Example 792, 1-{4-[(4-methylpiperazin-1-yl)carbonyl]phenyl}-3-{4-[4-morpholin-4-yl-6-(3-oxa-9-azabicyclo[3.3.1]non-9-yl)-1,3,5-triazin-2-yl]phenyl}urea]	35.5	–	3.3	–	–	0.81 nM	16	–	–	2
CCc1nc(-c2ccc(NC(=O)Nc3ccc(C(=O)NCCN(C)C)cc3)cc2)nc(N2CCOCC2)n1 [Example 237, N-[2-(dimethylamino)ethyl]-4-({[4-(4-ethyl-6-morpholin-4-yl-1,3,5-triazin-2-yl)phenyl]carbamoyl}amino)benzamide]	23	–	2	–	28	3 nM	–	69	–	–
O=C(Nc1ccc(C(=O)N2CCC(N3CCCC3)CC2)cc1)Nc1ccc(-c2nc(N3CCOCC3)nc(N3C4COCC3COC4)n2)cc1 [Example 776, 1-{4-[4-(3,7-dioxa-9-azabicyclo[3.3.1]non-9-yl)-6-morpholin-4-yl-1,3,5-triazin-2-yl]phenyl}-3-{4-[(4-pyrrolidin-1-ylpiperidin-1-yl)carbonyl]phenyl}urea]	29.5	–	3	–	–	0.345 nM	6	–	–	< 3.2
CC(C)c1nc(-c2ccc(NC(=O)Nc3ccc(C(=O)N4CCN(C(C)C)CC4)cc3)cc2)nc(N2CCOCC2)n1 [Example 491, 1-{4-[4-(1-methylethyl)-6-morpholin-4-yl-1,3,5-triazin-2-yl]phenyl}-3-(4-{[4-(1-methylethyl)piperazin-1-yl]carbonyl}phenyl)urea]	17	–	3.5	–	–	1.1 nM	35	–	–	8
O=C(Nc1ccc(-c2nc(N3CCOCC3)nc(N3CC4CCC(C3)O4)n2)cc1)Nc1cccnc1 [Example 47, 1-{4-[4-morpholin-4-yl-6-(8-oxa-3-azabicyclo[3.2.1]oct-3-yl)-1,3,5-triazin-2-yl]phenyl}-3-pyridin-3-ylurea]	52	–	13	–	116	1.6 nM	–	95	–	–

The next lines start with results.

IC50 (PI3K-γ) [nM]	IC50 (PI3K-γ; listed as 718) [nM]	IC50 (PI3K-α) [nM]	IC50 (PI3K-α; listed as 718) [nM]	IC50 ([1]; MDA-MB-361, 72 h) [nM]	IC50 (Human mTOR (FLAG-TOR))	IC50 ([2]; PC3-mm2 cells) [nM]	IC50 [2] [nM]	IC50 ([1]; 72 h, MDA-MB-361 cells) [nM]	Structure (SMILES)	IC50 [1, 3] [nM]
18	–	1	–	4	0.6 nM	–	46	–	CC(C)c1nc(-c2ccc(NC(=O)Nc3ccc(C(=O)NCCN(C)C)cc3)cc2)nc(N2CCOCC2)n1 [Example 305, N-[2-(dimethylamino)ethyl]-4-[({4-[4-(1-methylethyl)-6-morpholin-4-yl-1,3,5-triazin-2-yl]phenyl}carbamoyl)amino]benzamide]	–
31	–	10	–	30	1.6 nM	–	47	–	C[C@H]1COCCN1c1nc(-c2ccc(NC(=O)Nc3ccncc3)cc2)nc(N2CCOCC2)n1 [Example 89, 1-(4-{4-[(3S)-3-methylmorpholin-4-yl]-6-morpholin-4-yl-1,3,5-triazin-2-yl}phenyl)-3-pyridin-4-ylurea]	–
34	–	3	–	73	80 nM	–	219	–	CCc1nc(-c2ccc(NC(=O)Nc3ccc(C(=O)NC4CN(C)C4)cc3)cc2)nc(N2CCOCC2)n1 [Example 299, 4-({[4-(4-ethyl-6-morpholin-4-yl-1,3,5-triazin-2-yl)phenyl]carbamoyl}amino)-N-(1-methylazetidin-3-yl)benzamide]	–
221	–	28	–	473	6 nM	–	703	–	CCCCc1nc(-c2ccc(NC(=O)Nc3ccncc3)cc2)nc(N2CCOCC2)n1 [Example 186, 1-[4-(4-butyl-6-morpholin-4-yl-1,3,5-triazin-2-yl)phenyl]-3-pyridin-4-ylurea]	–
36	–	5	–	83	1.8 nM	–	92	–	O=C(Nc1ccccc1)Nc1ccc(-c2nc(OC3CCOCC3)nc(N3CCOCC3)n2)cc1 [Example 60, 1-{4-[4-morpholin-4-yl-6-(tetrahydro-2H-pyran-4-yloxy)-1,3,5-triazin-2-yl]phenyl}-3-phenylurea]	–
8	–	0.4	–	10	0.85 nM	–	13	–	CN1CCN(C(=O)c2ccc(NC(=O)Nc3ccc(-c4nc(N5CCOCC5)nc(N5CCOCC5)n4)cc3)cc2)CC1 [Example 69, 1-(4-(4,6-dimorpholino-1,3,5-triazin-2-yl)phenyl)-3-(4-(4-methylpiperazine-1-carbonyl)phenyl)urea hydrochloride]	–
114	–	16	–	–	2 nM	44	–	9	CCCN1CCN(C(=O)c2ccc(NC(=O)Nc3ccc(-c4nc(N5CCOC[C@@H]5C)nc(N5CCOC[C@@H]5C)n4)cc3)cc2)CC1 [Example 638, 1-(4-{4,6-bis[(3S)-3-methylmorpholin-4-yl]-1,3,5-triazin-2-yl}phenyl)-3-{4-[(4-propylpiperazin-1-yl)carbonyl]phenyl}urea]	–
